The results in this text go back to patent publication US12472226B2, “Cell-permeable peptide” (priority 2019, dated 2025).

The test system of one test is MIA Paca2 cells. Briefly: Test on nuclear transport (confocal Z scan, DAPI). The class given is cell-based, human. The following applies: 50μ/mL, 23 days. An excerpt:
(§1) Human fibrosarcoma-derived HT-1080 cells (HT-1080 cells, JCRB cell bank) were used as cancer cells in the test for monitoring changes in mitochondrial membrane potential. HT-1080 cells, human osteosarcoma cell line Hos cells (Hos cells, JCRB cell bank), human histiocytic lymphoma/macrophage U937 cells (U937 cells, JCRB cell bank), human myeloid leukemia HL-60 cells (HL-60 cells, JCRB cell bank), acute monocytic leukemia THP-1 cells (THP-1 cells, JCRB cell bank), human alveolar basal epithelial adenocarcinoma cell A549 cells (A549 cells, Cell Resource Center for Biomedical Research, Institute of Development, Aging and Cancer, Tohoku University), human pancreatic carcinoma cells (MIA Paca 2 cells, Cell Resource Center for Biomedical Research, Institute of Development, Aging and Cancer, Tohoku University) and well differentiated human liver carcinoma-derived cell line HuH7 cells (HuH7 cells, Cell Resource Center for Biomedical Research, Institute of Development, Aging and Cancer, Tohoku University) were used as cancer cells in an in vitro cell-death induction test of cancer cells and a nuclear transport test of Example 2. Normal human gingival fibroblast cells Gin-1 (Gin-1 cells, DS Pharma Biomedical) were used as a control. The above-described cells were each inoculated into a 96-well culture plate (Falcon) at 5,000 cells/[…] and subjected to the following tests.
(§2) Similarly, 50μ/mL of Example 2 was added to the A549, MIA Paca2 and HuH7 cells. The cells were cultured for 23 days and then scanned by the Z scan technique using the confocal laser scanning microscope LSM800 after dyed with DAPI. FIG. 5B is each photograph of XY, XZ and YZ cross sections that were merged with Example 2 (green) and DAPI (blue) in the variety of cancer cells. As a result, the color of the images merged with Example 2 and DAPI dye took on light blue.

In the next test the test system is A549 cells. In words: Test on nuclear transport (confocal Z scan, DAPI). Format: cell-based, human. As to conditions: 50μ/mL, 23 days.
From the text: as §1, §2

Another test has as its system HuH7 cells. Briefly: Test on nuclear transport (confocal Z scan, DAPI). The class given is cell-based, human. As to conditions: 50μ/mL, 23 days.
From the text: as §1, §2

A further test deals with HT-1080 cells tumor. Briefly: Growth-inhibition and apoptosis of cancer cells in tumor-bearing mice. Format: in vivo, BALB/c nude mouse. As to conditions: 10 mg/kg intraperitoneally every 3 days. The method, then:
HT-1080 cells (1×10^7 cells/200 μL) were subcutaneously implanted into the back of 5 week-old BALB/c nude mouse (CHARLES RIVER LABORATORIES JAPAN, INC.). A tumor after the implantation was confirmed to reach 30 to 60 mm^3, and then they were subjected to the following tests.
Example 2 was dissolved in the sterile water and adjusted to be 200 μg/200 μL by the addition of 2-time concentrated α-MEM (not containing glutamine or an antibiotic). It was intraperitoneally administered to tumor-bearing mice at 10 mg/kg every 3 days. In the control administration group, 200 μL of 1-time concentrated α-MEM was intraperitoneally administered to tumor-bearing mice every 3 days. The mice were weighed on DRETEC weighing scale (DRETEC CO., Ltd., Japan) and the tumor size (estimation volume (shortest diameter×longer diameter×height×pi/6 mm^3)) was measured with a vernier caliper (maximum: 150 mm, minimum: 0.05 mm) (MITUTOYO, Japan) every 3 days.
FIG. 6 is a graph illustrating the transitions of tumor size in the Example 2 and control administration group (N=6). The vertical axis represents the average value of tumor size±standard deviation (SD), and the horizontal axis represents the days after administration. […] In the control administration group, the tumor size on day 24 was more than 1,500 mm^3. On the other hand, the effect of suppressing tumor growth was confirmed as the tumor size was about 600 mm^3 in the Example 2 administration.

For test [1], the system named is cytoplasm and nuclear protein of HT-1080 cells. In words: Analytical test of cytoplasm and nuclear protein bound by Example 2 (immunoprecipitation, shotgun analysis). Format: binding, human. The following applies: 50 μg/mL, 5 days. The method, then:
The HT-1080 cells (20 million cells) were cultured in 4 mL of serum-supplemented medium (α-MEM+10% FBS) to be 50 μg/mL at the final concentration of Example 2 for 5 days at 37° C. and 5% CO2 in the cell incubator. The cells were washed with PBS and collected. The protein was individually harvested from the cytoplasm and the nucleus using NE-PER Nuclear and Cytoplasmic Extraction Reagents (PIERCE). 80 μL of A/G agarose was added to 1 mg of each protein from the cytoplasm and the nucleus and stirred at 4° C. for 1 hour, the samples were pretreated. 10 μg of IgG Fraction Monoclonal Mouse Anti-Fluorescein (FITC) (Jackson ImmunoResearch) was added to the pretreated solution (1 mg/600 μL) and shaken at 4° C. overnight. Subsequently, 20 μL of A/G agarose was added to the mixtures and shaken at 4° C. for 2 hours. After the mixtures were washed three times with a wash buffer, 50 μL of elution buffer (Thermo Fisher Scientific) was added to the A/G agarose. […]
Proteins were identified from the cytoplasm or nucleus and listed with the accession number, protein name, identified number of detected peptides, identified number of unique peptides, confidence score and amount of cytoplasmic protein or nuclear protein(fmol), except for the antibodies used in immunoprecipitation and Example 2 from the detected proteins.

Non-standard residues stand in square brackets, D forms with d. No end group written: not given here. *: point of attachment. FITC = O=C1OC2(c3ccc(O)cc3Oc3cc(O)ccc32)c2ccc(NC(=S)*)cc21; Ahx = NCCCCCC(=O)O

Regarding “Example 2: peptide of SEQ ID NO: 1 labeled with FITC, bound via an Ahx linker at the N-terminus ({FITC}-[Ahx]KDNRGNLLQCVCTGNGRGEWKC; cysteine pairing not given here)”, the intracellular localization entry is “transfer to a nucleus and bind to a chromosome DNA” with MIA Paca2 cells; “transfer to a nucleus and bind to a chromosome DNA” in the test with A549 cells; “transfer to a nucleus and bind to a chromosome DNA” in the test on HuH7 cells. Besides, the “growth inhibition of the tumor compared with the control administration group” value with HT-1080 cells tumor (between days 12 and 24) was “significant difference at a level of 1%”. The tumor size result in the test on HT-1080 cells tumor (day 24, N=6) was “about 600 mm^3”. In the test on HT-1080 cells tumor (to the 33th day), the tumor shrinkage result is reported as “tendency to shrink the tumor was confirmed”. Further, the “nuclear transfer proved biochemically” value in test [1] is on record as “transfer to the inside of the nucleus”. Moreover, the “proteins bound (identified from cytoplasm or nucleus)” value in test [1] was “linker histones H1-3, core histones (H2A, H2B, H3-2 and H4), 22 types of 40S ribosomal proteins and 28 types of 60S ribosomal proteins”.
